{"source": "patent US20130252959A1", "about": "“NITRIC OXIDE DONORS IN THERAPY OF NITRIC OXIDE DEFICIENCY-INDUCED DISTURBANCES OF CEREBRAL MICROCIRCULATION” (West-Falische Wilhelms-Universitat Munster, priority 2010, published 2013)", "key": {"[1]": {"test_system": "CVS", "conditions": "cited from earlier work"}, "[2]": {"test_system": "CVS and ischemia", "conditions": "intrathecal, local or intraventricular application; humans or laboratory animal; cited from earlier work"}, "[3]": {"test_system": "patients with SAH after aneurysmal rupture", "assay": "Clinical outcome by modified NIH-SS and modified Rankin Scale at least three months after discharge", "assay_type": "in vivo, human", "text": "The National Institutes of Health stroke scale (NIH-SS) is a graded neurological examination that assesses speech, language cognition, inattention, visual field abnormalities, motor and sensory impairments, and ataxia. The scale was developed for use in acute-stroke therapy trials and has since been widely used as a standard part of the assessment in clinical trials. This scale, along with many others, has been evaluated in its clinical usefulness in the assessment of the stroke patient. The NIH-SS permits a high-resolution evaluation of a patient's neurological status. To obtain the finding on the NIH-SS, various neurological aspects are investigated and assigned point scores. The total point score is a measure of the severity of the symptoms of stroke, the point score increasing with the severity of the symptoms. This rating scale is also suitable for monitoring the course of the symptoms after stroke and for quantifying the success of any treatment used. In general, it is possible to establish a correlation between the size of the infarct and the severity of the stroke as quantified by the stroke scale.\nRating scales such as the NIH-SS or the modified Rankin scale are generally used for the quantitative evaluation of the severity of a cerebral disorder, whether acute or under treatment.\nCCT at the beginning and after treatment were analyzed independently by two experienced neuroradiologists and were scanned for development of delayed brain infarction. At least three months after discharge a modified NIH-SS and a modified Rankin Scale (mRS) for clinical follow up was assessed.\n83 patients admitted to the Intensive Care Unit of the University Hospital of Munster, Germany, after spontaneous aneurysmal SAH were registered in an observational study. Seven patients died in the first 124 hours after admission, without detected CVS probably related to malignant brain edema and severity of initial SAH. These patients were excluded from further evaluation.\nOut of 76 individuals 27 patients received Molsidomine i.v. in an individually up-titrated dosage with a target quantity of 3.5-10 mg/h dependent on systemic circulation reactions. The remaining 49 patients received standard therapy.\nAfter a minimum of three months the modified NIH and modified Rankin status were determined in order to control clinical outcome of patients (NIH-SS and mRS)."}, "[4]": {"conditions": "after oral administration; cited from earlier work"}, "[5]": {"test_system": "patients with SAH after aneurysmal rupture", "assay": "Spasm (CVS) related brain infarcts on CCT in SAH patients, Molsidomine in addition to standard therapy vs standard Nimodipine therapy", "assay_type": "in vivo, human", "description": "CCT at the beginning and after treatment were analyzed independently by two experienced neuroradiologists and were scanned for development of delayed brain infarction. At least three months after discharge a modified NIH-SS and a modified Rankin Scale (mRS) for clinical follow up was assessed. 83 patients admitted to the Intensive Care Unit of the University Hospital of Munster, Germany, after spontaneous aneurysmal SAH were registered in an observational study. […] These patients were excluded from further evaluation. […] Out of 76 individuals 27 patients received Molsidomine i.v. in an individually up-titrated dosage with a target quantity of 3.5-10 mg/h dependent on systemic circulation reactions. […] Within 24 h after admission to the ICU patients were treated with coil embolization and/or clipping. […] Appearance of CVS. Male and female patients with an age of 18 years and written informed consent for the additional application of Molsidomine. Spontaneous SAH after aneurysmal rupture and a clinical stage of Hunt and Hess grade Ito V. Exclusion criteria for patients were: No detected CVS. […] CCT and DSA images were independently reported by two experienced neuroradiologists for infarction and vasospasm. CVS related infarcts were diagnosed if hypodense lesions could be detected 72 h or later after therapeutic intervention or operation in comparison to the 24 h control CCT scan and being accompanied by clinical deterioration due to CVS or positive Doppler ultrasound or CVS in DSA."}, "[6]": {"test_system": "patients with SAH after aneurysmal rupture", "assay": "Side effects and monitoring of blood pressure (MAP), ICP and blood under Molsidomine i.v.", "experimental": "In both groups blood pressure, intracranial pressure (ICP) and saturation measurement of blood oxygen were observed continuously. TCD was performed daily or on demand with investigation of the internal carotid artery (ACI), medial cerebral artery (MCA), anterior cerebral artery (ACA) and basilar artery (BA). For monitoring the clinical condition the GCS score (Glasgow Coma Score) was determined per hour\nThe drug used contains Molsidomine, as supplied by Sanofi-Aventis, Germany, in ampullae with 2 mg/molsidomine (Corvaton®). The dosage of Molsidomine was adapted to the systemic blood pressure.\nThe dosage was reduced if the MAP dropped below 65 mmHg despite infusion therapy (HES 6-10%) or a mild Arterenol® therapy (max dosage Arterenol® 0.1-0.2 μg/h, preferably at a dose of 0.1-0.3 mg/h or a dose of 0.1-0.2 μg/kg/min.). With increased need for Arterenol® the dosage of Molsidomine was reduced accordingly. Patients with cardiac low-output failure induced by preexistent cardiac failure, stop of perfusion during acute SAH itself or other reasons like sepsis received Molsidomine up-titrated in highest possible amount based on cardiac treatment or the treatment was interrupted for maximal 48 hours if Arterenol®-dosage escalated.\nThe treatment with Molsidimine was continued (either i.v. or subsequent orally 4×8 mg ret.) until mean flows in TCD were normalized. The duration of Molsodomine application was at least 8 days according to inclusion criteria: Appearance or presence of detectable CVS."}, "[7]": {"test_system": "patients with SAH after aneurysmal rupture", "assay": "CVS detected by TCD (trans-cranial doppler)", "assay_type": "in vivo, human", "text": "TCD (trans-cranial doppler) is a diagnostic procedure using ultrasound waves to measure blood flow through the major blood vessels of the brain. In particular, the purpose of this test is to detect any narrowing or blockage in arteries located at the base of the brain that may decrease or stop the flow of blood to the brain and increase blood flow velocities according to narrowed vessel diameter. The test is most useful at detecting decreased blood flow through narrow areas inside blood vessels. TCDs are especially useful for monitoring blood flow in the brain of stroke patients who are affected by brain swelling and vasospasm (which are cerebral blood vessel spasms).\nThe treatment with Molsidomine was applied if vasospasm was detected by TCD (mean flow […] resp. Lindegaard-Index >3) or DSA (narrowing of vessel diameter >50%)."}, "[8]": {"test_system": "patients after brain hemorrhage, in particular SAH", "conditions": "under Nimodipine therapy; cited from earlier work"}, "[9]": {"conditions": "in vivo; cited from earlier work"}, "[10]": {"test_system": "rat cerebral arterioles and venules", "conditions": "He-Ne laser; cited from earlier work"}, "[11]": {"test_system": "SAH group", "conditions": "administered 48 hours after SAH was induced; cited from earlier work"}, "[12]": {"test_system": "spontaneously hypertensive rats (SHRs)", "conditions": "cited from earlier work"}, "[13]": {"conditions": "infusion 3 min after MCA occlusion"}}, "note": "Entries after “also recorded” stand apart in the source; their conditions may differ.", "data": [{"molecule": "COc1ccccc1Oc1c(NS(=O)(=O)c2ccc(C)cn2)nc(-c2ccnc(-c3nnn[nH]3)c2)nc1OCCO", "note": "[Clazosentan]", "values": [{"measurement": "treatment of CVS", "setting": "[1]; in vivo", "value": "highly efficiency for the treatment of CVS"}, {"measurement": "long-term outcome or clinical benefit", "setting": "[1]; multicenter study", "value": "failed to show any effect on long-term outcome or clinical benefit"}]}, {"molecule": "O=[N+]([O-])OCC(CO[N+](=O)[O-])O[N+](=O)[O-]", "note": "[GTN, nitroglycerin]", "values": [{"measurement": "effect on CVS and ischemia", "setting": "[2]", "value": "good prophylactic effect on CVS and ischemia"}]}, {"molecule": "CCOC(=O)[N-]c1c[n+](N2CCOCC2)no1", "note": "[Molsidomine, N-ethoxycarbonyl-3-morpholinosydnonimine]", "values": [{"measurement": "Mean NIH >3 months (without deaths)", "setting": "[3]; Hunt & Hess grade III°", "value": 3.62}, {"measurement": "Mean mRS >3 months", "setting": "[3]; Hunt & Hess grade III°", "value": 1.75}, {"measurement": "Mean NIH >3 months (without deaths)", "setting": "[3]; Hunt & Hess grade II°", "value": 1}, {"measurement": "Mean mRS >3 months", "setting": "[3]; Hunt & Hess grade II°", "value": 1}, {"measurement": "Mean NIH >3 months (without deaths)", "setting": "[3]; Hunt & Hess grade IV°", "value": 3.8}, {"measurement": "Mean mRS >3 months", "setting": "[3]; Hunt & Hess grade IV°", "value": 1.6}, {"measurement": "Mean NIH >3 months (without deaths)", "setting": "[3]; Hunt & Hess grade I°", "value": 0}, {"measurement": "Mean mRS >3 months", "setting": "[3]; Hunt & Hess grade I°", "value": 1.75}, {"measurement": "Mean NIH >3 months (without deaths)", "setting": "[3]; Hunt & Hess grade V°", "value": 17}, {"measurement": "Mean mRS >3 months", "setting": "[3]; Hunt & Hess grade V°", "value": 4}, {"measurement": "clinical condition and long term outcome in the follow up", "setting": "[3]; SAH-survivors", "value": "impressive improvement of clinical condition and long term outcome"}, {"measurement": "clinical deterioration", "setting": "[3]; SAH-survivors", "value": "no clinical deterioration"}, {"measurement": "patients partly in work process again or to be reintegrated soon", "setting": "[3]; follow up, normally approx. 5% return to work", "value": "5/27"}, {"measurement": "absorption", "setting": "[4]", "value": "completely absorbed"}, {"measurement": "Spasmus related infarcts, Infarction (number of patients)", "setting": "[5]; Hunt & Hess grade III°", "value": 1}, {"measurement": "Spasmus related infarcts, Infarction (number of patients)", "setting": "[5]; Hunt & Hess grade II°", "value": 0}, {"measurement": "Spasmus related infarcts, Infarction (number of patients)", "setting": "[5]; Hunt & Hess grade IV°", "value": 1}, {"measurement": "Spasmus related infarcts, Infarction (number of patients)", "setting": "[5]; Hunt & Hess grade I°", "value": 1}, {"measurement": "Spasmus related infarcts, Infarction (number of patients)", "setting": "[5]; Hunt & Hess grade V°", "value": 0}, {"measurement": "patients who developed CVS associated infarcts (share of group)", "setting": "[5]; all Hunt & Hess grades", "value": 11.1, "unit": "%"}, {"measurement": "patients who developed vasospasm associated brain infarctions / patients of the group", "setting": "[5]; all Hunt & Hess grades", "value": "3/27"}, {"measurement": "patients who developed CVS associated infarcts (number)", "setting": "[5]; all Hunt & Hess grades, groups of 49 (Nimodipine) and 27 (Molsidomine)", "value": 3}, {"measurement": "adverse / side effects", "setting": "[6]; Molsidomine i.v., target 3.5-10 mg/h", "value": "No adverse side effects were observed; also recorded: did not show any relevant side effects; also recorded: no serious, untreatable (i.e. severe hypotension) adverse effects were observed"}, {"measurement": "depression of MAP, maximum", "setting": "[6]; even with higher dosage", "value": "≤ 10", "unit": "mmHg"}, {"measurement": "depression of blood pressure (systolic)", "setting": "[6]; even with higher dosage", "value": "10-20 mmHg"}, {"measurement": "effect of fast reduction of dosage", "setting": "[6]; regredient after increased Molsidomine levels", "value": "on/off phenomena or a rebound"}, {"measurement": "Blood stains", "setting": "[6]; under Molsidomine", "value": "normal"}, {"measurement": "ICP", "setting": "[6]; under Molsidomine", "value": "did not increase for short or longer periods"}, {"measurement": "MAP kept", "setting": "[6]; under Molsidomine", "value": "65-70 mmHg"}, {"measurement": "effect in terminating CVS", "setting": "[7]; judged from equal number of intra-arterial Nimodipine treatments per individual", "value": "weak effect"}, {"measurement": "TCD-values (flow velocities)", "setting": "[7]; under Molsidomine treatment", "value": "trend in Transcranial Doppeler (TCD)-values towards normal velocities"}]}, {"molecule": "COCCOC(=O)C1=C(C)NC(C)=C(C(=O)OC(C)C)C1c1cccc([N+](=O)[O-])c1", "note": "(centres unmarked) [Nimodipine, 1,4-dihydro-2,6-dimethyl-4-(3-nitrophenyl)-3,5-pyridinedicarboxylic acid 2-methoxyethyl 1-methylethyl ester]", "values": [{"measurement": "associated DINDs", "setting": "[8]", "value": "27-37%"}, {"measurement": "spasm-associated infarcts", "setting": "[8]", "value": "20-30%"}, {"measurement": "spasm-associated infarcts detected by advanced CT-technique", "setting": "[8]", "value": "up to 50%"}, {"measurement": "spasm-related mortality and high-grade morbidity", "setting": "[8]", "value": "30-40%"}, {"measurement": "Mean NIH >3 months (without deaths)", "setting": "[3]; Hunt & Hess grade III°", "value": 10.6}, {"measurement": "Mean mRS >3 months", "setting": "[3]; Hunt & Hess grade III°", "value": 3.75}, {"measurement": "Mean NIH >3 months (without deaths)", "setting": "[3]; Hunt & Hess grade II°", "value": 0}, {"measurement": "Mean mRS >3 months", "setting": "[3]; Hunt & Hess grade II°", "value": 3}, {"measurement": "Mean NIH >3 months (without deaths)", "setting": "[3]; Hunt & Hess grade IV°", "value": 12.3}, {"measurement": "Mean mRS >3 months", "setting": "[3]; Hunt & Hess grade IV°", "value": 4.3}, {"measurement": "Mean NIH >3 months (without deaths)", "setting": "[3]; Hunt & Hess grade I°", "value": 0.5}, {"measurement": "Mean mRS >3 months", "setting": "[3]; Hunt & Hess grade I°", "value": 1.6}, {"measurement": "Mean NIH >3 months (without deaths)", "setting": "[3]; Hunt & Hess grade V°", "value": "38 (2 × exitus)"}, {"measurement": "Mean mRS >3 months", "setting": "[3]; Hunt & Hess grade V°", "value": 5.7}, {"measurement": "patients who developed vasospasm associated brain infarctions / patients of the group", "setting": "[5]; all Hunt & Hess grades", "value": "25/49"}]}, {"molecule": "N=c1c[n+](N2CCOCC2)[n-]o1", "note": "[SIN-1, 3-morpholinosydnonimine]", "values": [{"measurement": "plasma protein binding", "setting": "[9]", "value": "no relevant plasma protein binding"}, {"measurement": "thrombus formation", "setting": "[10]", "value": "antithrombotic effect"}, {"measurement": "CBF", "setting": "[11]", "value": "increased CBF"}, {"measurement": "recovery of cerebral blood flow (CBF)", "setting": "[12]; after MCA occlusion", "value": "enhanced the recovery of cerebral blood flow (CBF)"}, {"measurement": "size of the infarct", "setting": "[12]; after MCA occlusion", "value": "reduced the size of the infarct"}, {"measurement": "infarct", "setting": "[12]; [13]", "value": "reduced the infarct"}, {"measurement": "recovery of CBF and EEG amplitude", "setting": "[12]; [13]", "value": "enhanced the recovery of CBF and EEG amplitude"}]}]}
